Assay results reported in article PMC6591251, “Discovery of potent necroptosis inhibitors targeting RIPK1 kinase activity for the treatment of inflammatory disorder and cancer metastasis” (Cell Death & Disease, 2019).
Values after ≈ are worked out from the molar mass of the structure shown.

Experiments:
HeLa-MLKL (1–190) cells = test: MLKL dimerization-induced cell death (AP20187); type: cell-based, human; details: AP20187 100 nM, 24 h
Experimental: Recombinant proteins were incubated with PK6 and PK68 as indicated. […] NIH3T3-RIPK3 cells were pretreated with indicated compounds for 1 h and subsequently treated with T (40 ng/ml)/S (100 nM)/Z (20 μM) or AP20187 (100 nM) for 24 h. Cell viability was determined by measuring ATP levels. e PK6 and PK68 have no effect on MLKL dimerization-induced cell death in HeLa-MLKL (1–190) cells that stably express MLKL (1–190aa) fused to DmrB. HeLa-MLKL (1–190) cells were pretreated with indicated compounds for 1 h and subsequently treated with AP20187 (100 nM) for 24 h. Cell viability was determined by measuring ATP levels.
Further, we evaluated the selectivity of PK68 against a panel of 369 kinases provided by Reaction Biology (at 1000 nM). […] In addition, we followed on some of the active “hits” from the kinome scan. PK68 was tested against TNIK and TRKA by a reputable CRO company. […] RIPK1 is known to mediate NF-κB activation independently of its kinase activity. […] It has been shown that homodimerization of RIPK3 or MLKL induced by the dimerizer leads to necroptosis bypassing the upstream signals[10],[37]. […] This dimerized RIPK3-induced necroptosis was blocked by RIPK3 inhibitor GSK873 but was not blocked by the RIPK1 inhibitor necrostatin-1. […] (Fig. 4e).
The cell viability was analyzed by using the CellTiter-Glo Luminescent Cell Viability Assay kit following the manufacturer’s instructions (Promega). Luminescence was measured with SpectraMax i3x (Molecular Devices).

[1] = Solubility in FaSSIF, LC/MS/MS; type: physicochemical; details: for solubility: pH= 6.5 FaSSIF, LC/MS/MS, duplicates
Experimental: ^a Calculated by ACDlabs. ^b Data are measured duplicates in pH= 6.5 FaSSIF using LC/MS/MS. ^c Data are determined three times by SMP10 melting point apparatus.

[2] = tested on: TNF-induced systemic inflammatory response syndrome; test: TNF-induced SIRS mouse model; type: in vivo, C57BL/6 mice; details: for protection against TNFα-induced lethal shock: PK6 30 mg/kg, PK68 1 mg/kg ip, 15 min before TNF-α 6 μg per mouse
Experimental: Necroptosis is involved in a variety of inflammatory disorders such as TNF-induced SIRS[11],[12]. We therefore evaluated the therapeutic effect of PK68 in a mouse model of TNF-induced SIRS. C57BL/6 mice were treated with vehicle, PK6, or PK68 for 15 min prior to intravenous injection of mouse TNFα (6 µg TNFα per mouse). […] SIRS is associated with systemic release of proinflammatory cytokines and tissue injuries. […] Moreover, TNF-induced damage of the colon was attenuated by the treatment of PK68 (Fig. 7d).
Fig. 7 PK68 ameliorates TNF-induced systemic inflammatory response syndrome. C57BL/6 mice (n = 11) were injected with vehicle, PK6 (30 mg/kg), or PK68 (1 mg/kg) via intraperitoneal injection for 15 min, followed by the tail intravenous injection of mouse TNF-α (6 μg per mouse). a, b The survival rate (a) and body temperature loss (b) were monitored. c, d C57BL/6 mice (n = 5) were injected with vehicle or PK68 (1 mg/kg) for 15 min prior to the injection of mouse TNF-α. The mice were sacrificed 4 h after TNF-α administration, the serum concentration of IL-1β was measured by ELISA kits (c), and histology of the colon tissue was analyzed by H&E staining and the representative images are shown (d). The serum or colon tissue from C57BL/6 mice was used as the control (Normal). Magnification: ×100 (left) and ×200 (right). Data represent mean value ± standard deviation. *P < 0.05. **P < 0.01. ***P < 0.001
PK6 and PK68 were diluted into sterile PBS. C57BL/6 mice were pretreated with vehicle, PK6 (30 mg/kg), or PK68 (1 mg/kg) via intraperitoneal injection for around 15 min and then challenged with mouse TNF-α (6 μg per mouse) via tail intravenous injection. Mice mortality was continuously monitored till 72 h after TNF-α administration. The serum and colon tissue are collected at 4 h post TNF-α challenge.

[3] = tested on: HT-29 cells stably expressing Flag-tagged RIPK3; test: RIPK3 puncta formation, immunofluorescence; type: cell-based, human; details: T 100 ng/ml, S, Z 12 h
Excerpt: In addition to TNF-induced necroptosis, it is known that TLR3 or TLR4 activation can also trigger necroptosis. We further evaluated the effects of PK6 and PK68 on TLR3- and TLR4-mediated necroptosis induced by poly(I:C)/z-VAD and LPS/z-VAD, respectively. […] To investigate the molecular mechanism of PK series-mediated necroptosis inhibition, we examined the effects of these compounds on the major steps of necroptotic signaling, including activation of RIPK1, RIPK3, and MLKL. […] It has been shown previously that RIPK3 activation leads to the formation of RIPK3 puncta during necroptosis.
Fig. 3 PK6 and PK68 block cellular activation of RIPK1, RIPK3, and MLKL upon necroptotic stimuli. a, b Bone marrow-derived macrophages from C57BL/6 mice or rat were pretreated with DMSO, PK6(10 μM), or PK68 (100 nM) for 1 h and subsequently treated with indicated stimuli for 24–30 h. Cell viability was determined by measuring ATP levels. L, LPS (20 ng/ml); P, poly(I:C) (50 μg/ml); S (100 nM); Z (10 μM). Data are represented as the mean ± standard deviation of triplicates. c HT-29 cells were treated with the indicated compound for 1 h prior to the treatment of T (40 ng/ml), S (100 nM), and Z (20 μM) for additional 8 h. […] The distribution of RIPK3 was detected by immunofluorescence. *P < 0.05. **P < 0.01. ***P < 0.001 […]

Compound | polymerized MLKL-induced necroptosis (HeLa-MLKL (1–190) cells) | solubility (in words) [1] | solubility [1] | protection against TNFα-induced lethal shock [2] | generation of RIPK3 puncta [3] | TNFα-induced temperature loss ([2]; 1 mg/kg ip) | TNF-induced damage of the colon ([2]; 1 mg/kg, 4 h after TNF-α) | production of proinflammatory cytokines including IL-1β ([2]; 1 mg/kg, serum 4 h after TNF-α)
CC(=O)Nc1nc2ccc(-c3cnc(Cl)c(NC(=O)Cc4ccccc4)c3)cc2s1 [PK6, N-(5-(2-acetamidobenzo[d]thiazol-6-yl)-2-chloropyridin-3-yl)-2-phenylacetamide] | neither PK6 nor PK68 had any effect | poor | 0.09 µg/mL (≈ 0.206 µM) | effective protection | prevented generation of RIPK3 puncta | – | – | –
CC(=O)Nc1nc2ccc(-c3cnc(C)c(NC(=O)OC4CCCCC4)c3)cc2s1 [PK68, cyclohexyl (5-(2-acetamidobenzo[d]thiazol-6-yl)-2-methylpyridin-3-yl)carbamate] | neither PK6 nor PK68 had any effect | – | 0.56 µg/mL (≈ 1.32 µM) | effective protection | prevented generation of RIPK3 puncta | strongly reduced | attenuated | significantly ameliorated
